The source made the active and inactive calls. How the calls were made is not given here.
Target: Influenza A virus M2 proton channel (A/TW/4845/1999 H1N1)
Test: M2 proton channel binding, NMR based, influenza A virus H1N1 strain (AID 1549)
Settings: NMR binding screen, M2 protein

SMILES	Kd
CC(=O)c1cccc(NC(=O)NN2CCOCC2)c1	> 4 mM (inactive)
O=C(Nc1ccc2c(c1)OCO2)c1cccs1	> 4 mM (inactive)
O=C1NC(=O)/C(=C\c2ccncc2)S1	> 4 mM (inactive)
Cc1ccc2c(C)c(C(=O)Nc3nnc(C)s3)oc2c1	> 4 mM (inactive)
CS(=O)(=O)N1CCN(C(=O)c2ccccc2)CC1	> 4 mM (inactive)
CC1(C)O[C@H]2[C@H](O)C[C@](O)(C(N)=O)C[C@H]2O1	> 4 mM (inactive)
N#Cc1cn(CC(=O)N2CCCC2)c2ccccc12	> 4 mM (inactive)
COC(=O)CC1=Nc2ccccc2NC(=O)C1	> 4 mM (inactive)
O=C(Nc1nnc(-c2ccco2)o1)c1ccc([N+](=O)[O-])o1	> 4 mM (inactive)
COc1ccc(CN2CCC(O)CC2)c(O)c1	> 4 mM (inactive)
COC(=O)C[C@H]1C(C)(C)C(OC(C)=O)[C@]2(O)C=C3C(CC[C@]4(C)C3CC(=O)O[C@H]4c3ccoc3)C1(C)C2=O (stereo partly specified)	> 4 mM (inactive)
O=C(c1ccccc1)N1CCNCC1	> 4 mM (inactive)
CC(C)C(=O)NCC(c1ccco1)N1CCOCC1 (stereo unspecified)	> 4 mM (inactive)
COC1=CC(=O)C(O)=C/C1=C\C=C\c1ccccc1	> 4 mM (inactive)
O=C(O)C(CO)c1ccccc1 (stereo unspecified)	> 4 mM (inactive)
Cc1cc(C(=O)c2c(C)nn(C)c2Cl)n(C)n1	> 4 mM (inactive)
CCOC(=O)CSCC(=O)Nc1nccs1	> 4 mM (inactive)
Nc1cccc2c(=O)[nH][nH]c(=O)c12	> 4 mM (inactive)
O=C(Nc1ccon1)c1ccc(Br)o1	> 4 mM (inactive)
Cc1cc(C)n(S(=O)(=O)c2ccc(C(C)(C)C)cc2)n1	> 4 mM (inactive)
Cc1nc(-c2ccc(NS(C)(=O)=O)cc2)cs1	> 4 mM (inactive)
OC12CC3CC(CC(C3)C1)C2	> 4 mM (inactive)

SMILES	Kd
CC1CCC2(OC1)OC1CC3C4CCC5C[C@@H](O)CCC5(C)C4=CCC3(C)C1[C@@H]2C (stereo partly specified)	> 4 mM (inactive)
O=C(O)C1CC(=O)N(Cc2ccc(F)cc2)C1 (stereo unspecified)	> 4 mM (inactive)
S=C(NC1=NCCS1)Nc1ccccc1	> 4 mM (inactive)
O=[n+]1cc(C2=CC=CCC2)n([O-])c2c1CCCCC2	> 4 mM (inactive)
COC(=O)c1[nH]c2ccccc2c1C(=O)OC	> 4 mM (inactive)
Cc1onc(-c2ccccc2)c1C(=O)Nc1ccncc1	> 4 mM (inactive)
Cc1ccc(N2CCN(C(=O)c3ccccc3)CC2)c(C)c1	> 4 mM (inactive)
CC1SC(=NC(=O)c2ccncc2)NC1=O (stereo unspecified)	> 4 mM (inactive)
Cc1cc(C(=O)NCc2cccnc2)no1	> 4 mM (inactive)
Cn1c(SCc2ccon2)nc2ccccc2c1=O	> 4 mM (inactive)
O=C(CSc1ncccn1)NCc1ccco1	> 4 mM (inactive)
Cc1cc(O)cc(=O)o1	> 4 mM (inactive)
O=CN1CCN(C(=O)c2ccco2)CC1	> 4 mM (inactive)
CCCS(=O)(=O)N1CCN(c2ccccn2)CC1	> 4 mM (inactive)
COc1ccc2c(c1OC)C(=O)N(c1ncn[nH]1)C2	> 4 mM (inactive)
CC(=O)NCC1OCCc2ccccc21 (stereo unspecified)	> 4 mM (inactive)
S=c1[nH]ncn1-c1ccccc1	> 4 mM (inactive)
COC(=O)[C@@H]1OC(=O)[C@H]2O[C@@]23[C@@]1(C)CCC1[C@@]2(C)CCC(=O)C(C)(C)C2C[C@@H](OC(C)=O)[C@]13C (stereo partly specified)	> 4 mM (inactive)
COc1ccc2cc1Oc1ccc(cc1)C[C@H]1c3cc(c(OC)cc3CCN1C)Oc1c(OC)c(OC)cc3c1[C@H](C2)N(C)CC3	> 4 mM (inactive)
Cn1cccc1C(=S)N1CCOCC1	> 4 mM (inactive)
CCn1nnc2c(NCc3ccccn3)ncnc21	> 4 mM (inactive)
NCc1ccc(-c2cccs2)cc1	> 4 mM (inactive)

SMILES	Kd
CC(O)C(=O)N/N=C/c1ccccc1 (stereo unspecified)	> 4 mM (inactive)
Cc1onc(-c2c(F)cccc2Cl)c1C(N)=O	> 4 mM (inactive)
CC(=O)NCC1(c2ccccc2)CCOCC1	> 4 mM (inactive)
Cc1cc(C(=O)N2CCCCCC2)cs1	> 4 mM (inactive)
CN1CCC(NC(=O)c2cnccn2)CC1	> 4 mM (inactive)
Cc1ccccc1N1CCN(C(=O)C2CCCCC2)CC1	> 4 mM (inactive)
Cc1ccc(-c2nnn(CC(=O)O)n2)cc1	> 4 mM (inactive)
COC(=O)N(c1ccccc1)P1(=S)OCCO1	> 4 mM (inactive)
CCCc1nc2ccccc2c2nc(N)nn12	> 4 mM (inactive)
CC1CC[C@@]2(OC1)O[C@H]1CC3C4CC[C@@H]5C[C@@H](O)CC[C@]5(C)C4CC[C@]3(C)[C@H]1[C@@H]2C (stereo partly specified)	> 4 mM (inactive)
CC1=C/C(=C\c2c(O)[nH]c(=O)[nH]c2=O)C(C)=N1	> 4 mM (inactive)
Cn1nnc2cc(C(=O)N3CCSCC3)ccc21	> 4 mM (inactive)
CCN(CC)S(=O)(=O)c1ccc(F)cc1	> 4 mM (inactive)
CCn1nnc(NC(=O)c2cc3ccccc3o2)n1	> 4 mM (inactive)
O=C(O)/C=C/C(=O)Nc1ccccc1C(F)(F)F	> 4 mM (inactive)
CCc1c(C)n([O-])c2c([n+]1=O)CCC2	> 4 mM (inactive)
Nc1nsc(-c2ccccc2)n1	> 4 mM (inactive)
COc1ccc(Cc2nnc3c4cnn(C)c4ncn23)cc1	> 4 mM (inactive)
O=C(NN1C(=O)C2C3C=CC(C3)C2C1=O)C1CC=CCC1 (stereo unspecified)	> 4 mM (inactive)
Nc1ccc(Cl)nn1	> 4 mM (inactive)
O=[N+]([O-])c1ccc(/C=N/c2ncn[nH]2)cc1	> 4 mM (inactive)
CC(=O)OC[C@@]1(O)C[C@@]23CCC4c5ccoc5CC[C@]4(C)C2CC[C@@H]1C3 (stereo partly specified)	> 4 mM (inactive)

SMILES	Kd
NC1=NCc2ccccc21	> 4 mM (inactive)
CN=C(c1ccc([N+](=O)[O-])cc1)N(C)C	> 4 mM (inactive)
CNC(=O)C(=O)Nc1c(C)cccc1C	> 4 mM (inactive)
Cc1ccc(/C=C2/C(=O)N=C(N)N2C)s1	> 4 mM (inactive)
COC(=O)c1oc2ccc(Cl)cc2c1NC(C)=O	> 4 mM (inactive)
O=C(Nn1cnnc1)c1csc2c1CCCC2	> 4 mM (inactive)
CC(=O)Nn1cc2c(=O)n(C)c(=O)n(C)c2c1	> 4 mM (inactive)
O=C(O)c1ccc2c(c1)OCCO2	> 4 mM (inactive)
Cc1ccn(S(=O)(=O)c2ccc(C(C)(C)C)cc2)n1	> 4 mM (inactive)
Cn1c(SCCC(=O)O)nnc1-c1cccnc1	> 4 mM (inactive)
Cc1cc(C(=O)NCc2cccs2)cs1	> 4 mM (inactive)
CC(=O)OC(C)(C)[C@@H]1Cc2cc3ccc(=O)oc3cc2O1	> 4 mM (inactive)
CC(=O)c1cccc(N=C2NC(=O)CS2)c1	> 4 mM (inactive)
CCCS(=O)(=O)N1CCN(c2ccccc2F)CC1	> 4 mM (inactive)
Cn1ccc(C(=O)NC(=S)NN2CCOCC2)n1	> 4 mM (inactive)
NC(=O)CSc1ccc(-c2ccccc2)nn1	> 4 mM (inactive)
Cc1scc(C(=O)Nn2cnnc2)c1-c1ccccc1	> 4 mM (inactive)
CC(=O)c1cnc2nc(C(F)(F)F)nn2c1C	> 4 mM (inactive)
Cn1c(NCc2ccco2)nc2ccccc21	> 4 mM (inactive)
CC(=O)c1ccc(Cc2cnc(N)s2)cc1	> 4 mM (inactive)

— PubChem BioAssay AID1549 (Sanford-Burnham Center for Chemical Genomics, 2009)
